Calls of active or inactive are those of the source.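 Rule for the calls: active = parasite count per well reduced by over 3 SD from the mean, with host cell number above 80% of untreated; inactive = the rest.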

This test deals with L. donovani amastigotes in THP-1 macrophages, DAPI imaging, 72 h. In words: L. donovani intracellular amastigote growth inhibitors, imaging, THP-1 host macrophages, single concentration (AID 977614).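 Note: signal is the parasite per host cell ratio from DAPI stained kinetoplasts and nuclei.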
Turning to `COc1ccc(NC(=O)N2C[C@H]3[C@@H](c4ccccc42)[C@H](CO)N3Cc2ccccn2)cc1`, the AC50 (usually the midpoint of the concentration-response curve, whichever way the signal moves) is > 10 µM (inactive).

Regarding `O=C(CC1CC1)N1[C@H](CO)[C@@H]2c3ccccc3N(S(=O)(=O)c3ccccc3F)C[C@@H]21`, the AC50 was > 10 µM (inactive).

With `CCCNC(=O)N1[C@H](CNC(=O)c2cccc(F)c2)[C@H](c2ccccc2)[C@@H]1CO`, the AC50 was > 10 µM (inactive).

As to `C[C@@H]1CN([C@H](C)CO)C(=O)CCCn2nncc2CO[C@H]1CN(C)C(=O)Nc1cccc(Oc2ccccn2)c1`, the AC50 is > 10 µM (inactive).

For `CC(C)NC(=O)N1[C@H](CO)[C@@H](c2ccccc2)[C@H]1CN(C)C(=O)c1cccnc1`, the AC50 was > 10 µM (inactive).

Take `O=C(Nc1ccccc1F)N1C[C@H]2[C@@H](c3ccccc31)[C@H](CO)N2C(=O)Cc1cccnc1`: the AC50 was > 10 µM (inactive).

For `O=C(c1ccncc1)N1C[C@H]2[C@@H](c3ccccc31)[C@H](CO)N2C(=O)CN1CCOCC1`, the AC50 was > 10 µM (inactive).

Regarding `C[C@H](CO)N1C[C@H](C)[C@@H](CN(C)S(=O)(=O)c2ccc(-n3cccn3)cc2)OCc2cn(nn2)CCCC1=O`, the AC50 is > 10 µM (inactive).

Consider `C/C=C/c1ccc([C@H]2[C@@H](CO)N(C(C)=O)[C@H]2CNC(=O)c2ccccc2)cc1`, for which the AC50 was > 10 µM (inactive).

Consider `CCN(C[C@H]1[C@H](c2ccccc2)[C@@H](CO)N1CC1CC1)C(=O)c1ccccn1`, for which the AC50 is > 10 µM (inactive).

Regarding `O=C(CC1CC1)N1[C@H](CO)[C@H]2c3ccccc3N(S(=O)(=O)c3ccccc3F)C[C@H]21`, the AC50 is > 10 µM (inactive).

As for `CC(=O)N(CC1CCC1)C[C@@H]1N[C@@H](CO)[C@H]1c1ccc(C2=CCCC2)cc1`, the AC50 was > 10 µM (inactive).

As to `Cc1cccc(S(=O)(=O)N2C[C@@H]3[C@H](c4ccccc42)[C@H](CO)N3C(=O)c2ccccc2)c1`, the AC50 is > 10 µM (inactive).

In the case of `C[C@@H]1CN([C@H](C)CO)C(=O)CCCn2cc(nn2)CO[C@@H]1CN(C)C(=O)Nc1cccc(C(F)(F)F)c1`, the AC50 was > 10 µM (inactive).

As for `O=C(NC[C@@H]1N[C@@H](CO)[C@H]1c1ccccc1)c1ccccc1F`, the AC50 was > 10 µM (inactive).

For the compound `O=S(=O)(c1ccccc1)N1[C@@H]2CNc3ccccc3[C@@H]2[C@@H]1CO`, the AC50 was > 10 µM (inactive).

Consider `C[C@@H]1CN([C@H](C)CO)C(=O)CCCn2nncc2CO[C@@H]1CN(C)C(=O)c1cc(-c2ccccc2)on1`, for which the AC50 is > 10 µM (inactive).

As to `CCC(=O)N1C[C@H]2[C@@H](c3ccccc31)[C@H](CO)N2Cc1ccc(F)cc1`, the AC50 is > 10 µM (inactive).

Turning to `C[C@@H]1CN([C@H](C)CO)C(=O)CCCn2nncc2CO[C@H]1CN(C)C(=O)c1ccc2ccn(C)c2c1`, the AC50 is > 10 µM (inactive).

In the case of `C[C@H]1CN([C@@H](C)CO)C(=O)CCCn2nncc2CO[C@@H]1CN(C)S(=O)(=O)c1ccccc1C#N`, the AC50 is > 10 µM (inactive).

Regarding `C[C@H]1CN([C@@H](C)CO)C(=O)CCCn2cc(nn2)CO[C@@H]1CN(C)Cc1ccccc1`, the AC50 was > 10 µM (inactive).

As to `COCC(=O)N1C[C@@H]2[C@H](c3ccccc31)[C@@H](CO)N2Cc1cc(F)ccc1F`, the AC50 is > 10 µM (inactive).

Take `CN(C[C@H]1N[C@@H](CO)[C@H]1c1ccc(-c2ccc(F)cc2)cc1)C(=O)C1CCC1`: the AC50 was > 10 µM (inactive).

As to `C[C@H]1CN([C@@H](C)CO)C(=O)CCCn2nncc2CO[C@H]1CN(C)S(=O)(=O)c1ccccc1C#N`, the AC50 was > 10 µM (inactive).

Turning to `O=C(NC[C@H]1N[C@H](CO)[C@H]1c1ccc(-c2ccccc2F)cc1)c1ccccn1`, the AC50 is > 10 µM (inactive).

Consider `CCCN(C[C@H]1N[C@H](CO)[C@@H]1c1ccccc1)C(=O)COC`, for which the AC50 was > 10 µM (inactive).

With `OC[C@@H]1[C@H](c2ccc(-c3ccc(F)cc3)cc2)[C@@H](CNC2CCCC2)N1CCC(F)(F)F`, the AC50 was > 10 µM (inactive).

As to `COc1ccc(C(=O)N2C[C@H]3[C@@H](c4ccccc42)[C@H](CO)N3Cc2ccccc2Cl)cc1`, the AC50 was > 10 µM (inactive).

For the compound `O=C(NC[C@H]1N[C@@H](CO)[C@H]1c1ccc(-c2ccccc2F)cc1)c1ccccn1`, the AC50 was > 10 µM (inactive).

As for `CC(C)NC(=O)N1[C@H](CO)[C@H]2c3ccccc3NC[C@H]21`, the AC50 was > 10 µM (inactive).

As to `C[C@@H]1CN([C@H](C)CO)C(=O)CCCn2nncc2CO[C@H]1CN(C)C(=O)Nc1ccccc1C(F)(F)F`, the AC50 was > 10 µM (inactive).

As to `C[C@H]1CN([C@@H](C)CO)C(=O)CCCn2cc(nn2)CO[C@H]1CN(C)S(=O)(=O)c1ccc(-n2cccn2)cc1`, the AC50 was > 10 µM (inactive).

Take `O=C(Cc1ccccc1)NC[C@H]1N[C@H](CO)[C@@H]1c1ccc(C2=CCCC2)cc1`: the AC50 is > 10 µM (inactive).

In the case of `CCC(=O)N1[C@@H](CO)[C@@H]2c3ccccc3N(C(=O)Nc3ccc(Cl)cc3)C[C@@H]21`, the AC50 was > 10 µM (inactive).

As for `COc1ccc(C(=O)N2C[C@@H]3[C@H](c4ccccc42)[C@H](CO)N3Cc2ccccc2Cl)cc1`, the AC50 was > 10 µM (inactive).

On to `CCN(C[C@H]1[C@H](c2ccc(-c3cccnc3)cc2)[C@H](CO)N1C(C)=O)C(C)=O`, for which the AC50 was > 10 µM (inactive).

With `CCC(=O)N1[C@@H]2CN(S(=O)(=O)c3ccc(F)cc3)c3ccccc3[C@@H]2[C@@H]1CO`, the AC50 is > 10 µM (inactive).

Consider `O=C(Nc1ccc(Cl)cc1)N1C[C@H]2[C@@H](c3ccccc31)[C@H](CO)N2CC1CCCCC1`, for which the AC50 is > 10 µM (inactive).

Consider `O=C(CC(F)(F)F)N1C[C@@H]2[C@H](c3ccccc31)[C@H](CO)N2Cc1cccnc1`, for which the AC50 was > 10 µM (inactive).

Consider `C[C@H](CO)N1C[C@H](C)[C@H](CN(C)C(=O)Nc2cccc(C(F)(F)F)c2)OCc2cn(nn2)CCCC1=O`, for which the AC50 was > 10 µM (inactive).

With `O=C(Nc1ccc(F)cc1)N1[C@@H]2CNc3ccccc3[C@@H]2[C@@H]1CO`, the AC50 was > 10 µM (inactive).

As to `CCCC(=O)N1C[C@@H]2[C@H](c3ccccc31)[C@@H](CO)N2C(=O)Nc1ccc(F)cc1`, the AC50 is > 10 µM (inactive).

Regarding `O=C(c1ccc2c(c1)OCO2)N1C[C@H]2[C@@H](c3ccccc31)[C@@H](CO)N2Cc1cccnc1`, the AC50 was > 10 µM (inactive).

As for `CN(C[C@@H]1[C@@H](c2ccccc2)[C@H](CO)N1CC1CC1)C(=O)c1ccc(F)cc1`, the AC50 is > 10 µM (inactive).

Regarding `O=C(NC[C@@H]1[C@H](c2ccccc2)[C@H](CO)N1C(=O)C1CCC1)NC1CCCC1`, the AC50 is > 10 µM (inactive).

Turning to `O=C(c1ccc2c(c1)OCO2)N1C[C@@H]2[C@H](c3ccccc31)[C@H](CO)N2C(=O)CC1CC1`, the AC50 is > 10 µM (inactive).

Turning to `C[C@@H]1CN([C@@H](C)CO)C(=O)CCCn2cc(nn2)CO[C@@H]1CN(C)C(=O)NC1CCCCC1`, the AC50 was > 10 µM (inactive).

For the compound `CCCNC(=O)N1C[C@@H]2[C@H](c3ccccc31)[C@H](CO)N2C(=O)CN1CCOCC1`, the AC50 was > 10 µM (inactive).

As for `CCC(=O)N1[C@@H](CO)[C@@H](c2ccccc2)[C@@H]1CN(CC)C(=O)c1cccc(F)c1`, the AC50 is > 10 µM (inactive).

In the case of `COc1cccc(NC(=O)N2[C@H](CO)[C@H](c3ccccc3)[C@H]2CNCC(C)C)c1`, the AC50 was > 10 µM (inactive).

Consider `C[C@H](CO)N1C[C@H](C)[C@@H](CN(C)S(=O)(=O)c2cccc(C#N)c2)OCc2cn(nn2)CCCC1=O`, for which the AC50 is > 10 µM (inactive).

Take `COc1ccccc1S(=O)(=O)N(C)C[C@@H]1OCc2cn(nn2)CCCC(=O)N([C@H](C)CO)C[C@H]1C`: the AC50 is > 10 µM (inactive).

In the case of `COCC(=O)NC[C@@H]1[C@H](c2ccccc2)[C@H](CO)N1C(=O)c1ccccc1`, the AC50 was > 10 µM (inactive).

In the case of `O=S(=O)(NC[C@@H]1[C@@H](c2ccccc2)[C@@H](CO)N1CC1CC1)c1ccccc1`, the AC50 is > 10 µM (inactive).

Take `CN(C[C@@H]1[C@H](c2ccccc2)[C@H](CO)N1Cc1ccccn1)S(C)(=O)=O`: the AC50 is > 10 µM (inactive).

Consider `COc1ccc(CN(C)C[C@H]2OCc3cnnn3CCCC(=O)N([C@@H](C)CO)C[C@@H]2C)cc1`, for which the AC50 was > 10 µM (inactive).

In the case of `O=C(Nc1ccccc1Cl)N1C[C@@H]2[C@H](c3ccccc31)[C@H](CO)N2C(=O)c1cccnc1`, the AC50 is > 10 µM (inactive).

Turning to `COc1ccc(CN2[C@@H](CO)[C@@H]3c4ccccc4N(C(=O)NC(C)C)C[C@@H]32)cc1`, the AC50 is > 10 µM (inactive).

Consider `O=C(c1ccccc1F)N1C[C@@H]2[C@H](c3ccccc31)[C@H](CO)N2C(=O)Nc1ccccc1`, for which the AC50 was > 10 µM (inactive).

Turning to `O=C(c1ccccn1)N1C[C@H]2[C@@H](c3ccccc31)[C@H](CO)N2C(=O)C1CCCCC1`, the AC50 was > 10 µM (inactive).

In the case of `C[C@H]1CN([C@@H](C)CO)C(=O)CCCn2nncc2CO[C@H]1CN(C)C(=O)c1ccc2ccn(C)c2c1`, the AC50 was > 10 µM (inactive).

For the compound `CCC(=O)N1[C@H](CO)[C@H](c2ccc(-c3cncnc3)cc2)[C@@H]1CN(C)C(C)=O`, the AC50 is > 10 µM (inactive).

Turning to `O=C(c1ccncc1)N1C[C@H]2[C@@H](c3ccccc31)[C@@H](CO)N2C(=O)CN1CCOCC1`, the AC50 was > 10 µM (inactive).

Regarding `O=C(Cc1cccnc1)N1[C@H](CO)[C@H](c2ccccc2)[C@H]1CNCC1CCC1`, the AC50 was > 10 µM (inactive).

On to `C[C@@H]1CN([C@@H](C)CO)C(=O)CCCn2nncc2CO[C@H]1CN(C)CC1CCCCC1`, for which the AC50 was > 10 µM (inactive).

Turning to `C[C@H]1CN([C@@H](C)CO)C(=O)CCCn2nncc2CO[C@H]1CN(C)Cc1ccc2c(c1)OCCN2C`, the AC50 is > 10 µM (inactive).

Regarding `COCCN(C[C@@H]1[C@@H](c2ccccc2)[C@H](CO)N1C(C)=O)C(=O)c1cccnc1`, the AC50 was > 10 µM (inactive).

`CC(C)NC(=O)N1[C@@H](CO)[C@H](c2ccccc2)[C@@H]1CN(C)C(=O)c1cccnc1`: the AC50 was > 10 µM (inactive).

Regarding `CN1[C@@H]2CNc3ccccc3[C@@H]2[C@@H]1CO`, the AC50 is > 10 µM (inactive).

On to `COc1ccc(-c2ccc([C@@H]3[C@H](CN(C)S(C)(=O)=O)N[C@@H]3CO)cc2)cc1`, for which the AC50 is > 10 µM (inactive).

The record behind these values is PubChem BioAssay AID977614 (Broad Institute, 2014).
